Usually melting point stands for the temperature, or range, at which the solid turns liquid.

This note sets out measurements from patent US7442715B2, “Thiazole derivatives” (Astellas Pharma Inc., priority 2003, dated 2008).

In one data set the target is T1, Rat plasma SSAO (Rattus norvegicus, UniProt O08590).
T1 construct: The enzyme suspension prepared from blood plasma was pre-incubated with Compound A; from tissue; host or cells: rat blood plasma
T1 sequence (O08590 29-763 limits assumed): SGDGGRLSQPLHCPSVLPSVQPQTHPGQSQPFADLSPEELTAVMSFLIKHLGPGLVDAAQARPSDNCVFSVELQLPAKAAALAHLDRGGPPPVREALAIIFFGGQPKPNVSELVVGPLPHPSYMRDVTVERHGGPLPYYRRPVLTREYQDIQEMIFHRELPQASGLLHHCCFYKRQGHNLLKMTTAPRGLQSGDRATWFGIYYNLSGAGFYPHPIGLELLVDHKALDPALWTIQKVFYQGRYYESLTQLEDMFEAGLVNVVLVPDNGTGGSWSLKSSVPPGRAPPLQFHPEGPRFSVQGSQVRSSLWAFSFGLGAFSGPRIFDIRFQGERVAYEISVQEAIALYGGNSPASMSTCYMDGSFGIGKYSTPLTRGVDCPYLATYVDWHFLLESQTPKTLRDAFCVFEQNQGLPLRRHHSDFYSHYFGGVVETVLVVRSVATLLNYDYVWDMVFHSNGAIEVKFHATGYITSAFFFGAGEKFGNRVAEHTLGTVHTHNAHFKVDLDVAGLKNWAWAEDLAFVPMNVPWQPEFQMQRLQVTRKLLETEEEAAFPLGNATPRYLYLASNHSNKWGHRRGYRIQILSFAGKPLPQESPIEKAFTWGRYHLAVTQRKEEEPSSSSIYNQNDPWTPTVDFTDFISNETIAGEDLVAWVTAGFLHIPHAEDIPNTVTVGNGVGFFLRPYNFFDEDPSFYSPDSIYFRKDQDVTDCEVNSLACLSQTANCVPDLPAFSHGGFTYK
As to the kind of experiment: VAP-1 enzyme (SSAO) activity in rat plasma, radiochemical-enzyme assay with 14C-benzylamine. In kind it is biochemical. How it is done: (§1) VAP-1 enzyme (SSAO) activity in both human and rat plasma was determined by a radiochemical-enzyme assay using ^14C-benzylamine as artificial substrate. The enzyme suspension prepared from blood plasma was pre-incubated with Compound A in 96-well microplate at room temperature for 30 min. The enzyme suspension was then incubated with ^14C-benzylamine (2×10^−5 mol/l final concentration) in a final volume of 50 μl at 37° C. for 1 hour. The enzyme reaction was terminated by adding 2 mol/l (50 μl) citric acid. The oxidized products were directly extracted into a 200 μl toluene scintillator, and its radioactivity was measured by a scintillation spectrometer. Monoamine oxidase (MAO) and diamine oxidase (DAO, histaminase) activities were also determined by similar method using ^14C-phenylethylamine and ^14C-putrescine as substrate, respectively. Cloned DAO from cDNA libraries was used in human DAO assay. Inhibition activity was expressed as IC50 (μmol/l) value.

A further data set addresses T2, Human plasma SSAO (Homo sapiens, UniProt Q16853).
T2 construct: The enzyme suspension prepared from blood plasma was pre-incubated with Compound A; from tissue; host or cells: human blood plasma
T2 sequence (Q16853 29-763 limits assumed): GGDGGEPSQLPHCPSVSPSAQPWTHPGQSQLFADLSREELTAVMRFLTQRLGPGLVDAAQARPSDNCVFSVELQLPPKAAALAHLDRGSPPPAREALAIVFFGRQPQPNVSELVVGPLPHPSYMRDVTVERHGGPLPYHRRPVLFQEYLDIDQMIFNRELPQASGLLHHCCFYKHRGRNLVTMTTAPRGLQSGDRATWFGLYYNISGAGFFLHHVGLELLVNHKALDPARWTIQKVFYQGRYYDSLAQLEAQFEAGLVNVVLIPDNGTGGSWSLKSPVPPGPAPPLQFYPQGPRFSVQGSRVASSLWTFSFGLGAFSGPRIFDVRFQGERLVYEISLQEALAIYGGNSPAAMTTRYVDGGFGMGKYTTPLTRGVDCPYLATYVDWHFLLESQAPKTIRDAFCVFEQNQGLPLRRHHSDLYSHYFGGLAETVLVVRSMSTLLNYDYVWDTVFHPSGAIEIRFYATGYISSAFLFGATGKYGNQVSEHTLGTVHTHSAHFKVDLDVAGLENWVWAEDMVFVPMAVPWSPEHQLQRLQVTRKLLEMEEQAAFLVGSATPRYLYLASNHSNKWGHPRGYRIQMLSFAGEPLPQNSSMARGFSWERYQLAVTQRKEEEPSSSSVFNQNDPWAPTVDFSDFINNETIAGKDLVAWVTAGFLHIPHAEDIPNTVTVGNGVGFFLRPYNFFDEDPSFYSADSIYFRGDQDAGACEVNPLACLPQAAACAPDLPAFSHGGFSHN
In words: VAP-1 enzyme (SSAO) activity in human plasma, radiochemical-enzyme assay with 14C-benzylamine. In kind it is biochemical. How it is done:
as §1

The target of another data set is T3, plasma SSAO (Rattus norvegicus, UniProt O08590).
T3 construct: from tissue; host or cells: plasma of STZ-induced diabetic rats
T3 sequence (O08590 29-763 limits assumed): T1 sequence (O08590 29-763 limits assumed)
As to the kind of experiment: Plasma SSAO activity in STZ-induced diabetic rats after treatment. In kind it is in vivo. How it is done: Diabetes in rat was induced with an intraperitoneal (i.p.) injection of 65 mg/ml/kg of streptozotocin (STZ) in 2 mmol/l citrate buffer (pH 4.5) after a 20-h fast. At the same time control rat were injected with an equal volume of 2 mmol/l citrate buffer. Plasma glucose level was checked by a calorimetric method. At day 3 of STZ treatment, the rat was diagnosed with diabetes showing a plasma glucose level of 350 mg/dl.
The treatment of Compound A was given daily from 2 weeks after STZ treatment for 2 weeks. At 24 hrs after final treatment of Compound A, the vascular permeability in oculus was investigated based on the leakage of dye into the vitreous 30 min after intravenous injection of fluorescein solution (40 mg/ml/kg). Permeability was expressed as vitreous/plasma ratio of fluorescein concentration measured by a fluorophotometer. At the same time, the plasma SSAO activity was checked by the radiochemical-enzyme assay using ^14C-benzylamine (2×10^−5 mol/l final concentration) as substrate.

Structures can show the parent of a compound that is named as a salt.

For `CC(=O)Nc1nc(CCc2ccc(NC(=N)NN)cc2)cs1` [Production Example 58, N-{4-[2-(4-{[hydrazino(imino)methyl]amino}phenyl)ethyl]-1,3-thiazol-2-yl}acetamide], the melting point lay in the range of 216.5 to 218 °C. `CC(=N)Nc1ccc(CCc2nc(NC(C)=O)sc2Cc2ccc(S(C)(=O)=O)cc2)cc1` [Production Example 56, N-{4-{2-[4-(ethanimidoylamino)phenyl]ethyl}-5-[4-(methylsulfonyl)benzyl]-1,3-thiazol-2-yl}acetamide] came in with a melting point of 81.5 to 83 °C.

`CC(=O)Nc1nc(CCc2ccc(NC(=N)N)cc2)c(C(=O)NCc2ccc([N+](=O)[O-])cc2)s1.Cl` came in with a melting point of 138 to 140 °C.

As to `CC(=O)Nc1nc(CCc2ccc(C(=N)N)cc2)cs1.Cl`, the melting point fell in the range of 229.5 to 231 °C. `CC(=O)Nc1nc(CCc2ccc(CON)cc2)cs1` [Production Example 16, N-[4-(2-{4-[(aminooxy)methyl]phenyl}ethyl)-1,3-thiazol-2-yl]acetamide] yielded a melting point of 130 to 130.5 °C. As for `CC(=O)Nc1nc(CCc2ccc(NC(=N)N)cc2)c(Cc2ccc(S(C)(=O)=O)cc2)s1` [Production Example 48, N-{4-[2-(4-{[amino(imino)methyl]amino}phenyl)ethyl]-5-[4-(methylsulfonyl)benzyl]-1,3-thiazol-2-yl}acetamide], the melting point fell in the range of 228 to 229.5 °C.

With `CC(=O)Nc1nc(CCc2ccc(NC(=N)N)cc2)cs1` [Compound A, N-{4-[2-(4-{[amino(imino)methyl]amino}phenyl)ethyl]-1,3-thiazol-2-yl}acetamide], the “Inhibition of enzyme activity of rat plasma SSAO (in words)” value at Rat plasma SSAO is “completely inhibited”. Further, on Human plasma SSAO, the “Inhibition of enzyme activity of human plasma SSAO (in words)” value is reported as “completely inhibited”. In addition, the “Plasma SSAO activity” value at plasma SSAO (STZ diabetic rats, daily treatment for 2 weeks from 2 weeks after STZ, 14C-benzylamine 2×10^−5 mol/l, mean±S.E.M., 10 rats) stood at 2.51 ± 0.26 pmol/min/mL. For the same compound, the “Effect on increased plasma SSAO activity in diabetic rats (in words)” value on plasma SSAO (diabetic rats at 4 weeks after STZ treatment) is on record as “dose-dependent inhibition of the increased plasma SSAO activity”.

In turn, `CC(=O)Nc1nc(CCc2ccc(CC(=N)N)cc2)cs1` (as salt: hydrochloride) [Production Example 59, N-(4-{2-[4-(2-amino-2-iminoethyl)phenyl]ethyl}-1,3-thiazol-2-yl)acetamide] returned a melting point of 190.5 to 192 °C. Compound `CC(=O)Nc1nc(CCc2ccc(NC3=NCCS3)cc2)cs1` [Production Example 2, N-(4-(2-(4-(4,5-dihydro-1,3-thiazol-2-ylamino)phenyl)ethyl)-1,3-thiazol-2-yl)acetamide] yielded a melting point of 218 to 219.5 °C. The compound `CC(=O)Nc1nc(CCc2ccc(C(=O)NC(=N)N)cc2)c(Cc2ccc(S(C)(=O)=O)cc2)s1` [Production Example 106, 4-(2-{2-(acetylamino)-5-[4-(methylsulfonyl)benzyl]-1,3-thiazol-4-yl}ethyl)-N-[amino(imino)methyl]benzamide] had a melting point of 108 to 109.5 °C.
